# Patent US10676720B2, “Combinational use of mechanical manipulation and programin derivatives to increase Oct4, Sox2, Nanog or c-Myc expression in fibroblasts” (The Chinese University of Hong Kong, priority 2014, dated 2020)
# Several values for one entry are separate records, joined by “and”; a condition that tells them apart may be missing. Identical values can stand only once. Like-named read-outs stand apart in the source and are kept apart here.
# Experiments:
# [1] = test system: Oct4, Sox2 and Nanog expression in embryoid-like cell bodies of CD34+ mouse fibroblasts; assay: qPCR of pluripotent gene expression in embryoid-like bodies of mouse tail fibroblasts; format: cell-based; settings: for Oct4, Sox2 and Nanog expression (qPCR, FIG. 5): embryoid-like cell bodies of CD34+ mouse fibroblasts; for Oct4, Sox2 and Nanog expression (qPCR, FIG. 5) / Oct4, Sox2 and Nanog expression (qPCR, FIG. 4): vs untreated bodies and monolayer; for Oct4, Sox2 and Nanog expression (qPCR, FIG. 4): embryoid-like cell bodies treated with 5 μm
# Method: Materials required: Culture medium, supplemented with 10% FBS, 1% PS in DMEM (Invitrogen); Mouse ESC medium, supplemented with 1×B27 (Invitrogen), 1,000 U/mL Mouse Leukemia Inhibitory Factor (LIF) in DMEM/F12 culture medium (Invitrogen); Programin (frozen stock dissolved in DMSO); Working concentration=1-5 μM; Sterile 35 mm non-adhesive culture dish (SPL; 11035).
# 1. Source mouse tail fibroblasts (passage 2-6 and in log phase of growth). Trypsinize the fibroblasts using standard protocols to obtain a suspension of the cells in culture medium.
# 2. Seed the fibroblasts or other somatic cells onto a sterile 35 mm non-adhesive culture dish at density of 1×10^5-1×10^6 cells/cm^2 in 3 mL of culture medium.
# 4. Gently pipette the culture media to prevent the cells from adhering to culture dish surface. Two sessions per day, 2 min for each session, must be performed. A standard 1 mL pipette and plastic tip was used for pipetting the cultures. The pipetting has to done very slowly (approximately 0.5-1 mL/second generates sufficient force to detach cells from non-adhesive culture dish surface).
# 1. The cells would start to aggregate into embryoid-like bodies after day 1. These bodies will grow in numbers and size during the period of culture.
# 2. Gently pipette the culture media to prevent the embryoid-like cell bodies from attaching on culture dish surface.
# 3. Add 1 mL of fresh culture medium.
# 1. Collect cell suspension and pellet cells by centrifugation at 800 rpm for 5 min. […] Wash cell once with mouse ESC medium and Programin (1-5 μM) or programin derivatives.
# 2. Pellet the embryoid-like bodies again and re-suspend them in 3 mL mouse ESC medium and Programin or derivatives thereof.
# 3. Seed the embryoid-like cell bodies onto a sterile 35 mm non-adhesive culture dish.
# 4. Perform daily pipetting twice in a day to prevent the embryoid-like cell bodies from sticking to the culture dish.
# 5. Add 1 mL of fresh mouse ESC medium on day 5 (day 2 post-Programin treatment).
# 2. Harvest the embryoid-like cell bodies for qPCR analysis to validate expression of pluripotent genes: Oct4, Sox2 and Nanog expression. In addition, expression of other key stem cell-associated genes.
# [2] = test system: Oct4-EGFP expression in CD34+ fibroblasts from the tail of an Oct4-EGFP transgenic mouse; settings: embryoid-like cell bodies, 5 μM, 24, 48 and 69 hours
# Text: 1. Harvest the embryoid-like cell bodies for PI and Hoechst staining for confocal analysis. The presence of green fluorescence and Hoechst staining in cells indicate the presence of live PIP cells expressing Oct4-EGFP.
# CD34^+ fibroblasts harvested from the tail of an Oct4-EGFP transgenic mouse were mechanically pipetted and maintained on non-adhesive culture plates so that the cells became aggregated to form embryoid-like bodies (FIG. 3A). The embryoid-like bodies in this study were stained with PI dye to determine the presence of dead cells (red arrows) and Hoechst dye for the presence of live cells (blue arrows) (FIGS. 3A-3D).
# [3] = test system: Programin-treated embryoid-like cell bodies
# Method: Programin-treated embryoid-like cell bodies (1×10^6 cells/10 cm^2) were maintained as a suspension culture in DMEM/F12, 1000 U/mL LIF and 1×B27 on non-adhesive culture dishes for 4 days. The embryoid-like cell bodies were then transferred to culture dishes coated with 0.1% gelatin (FIG. 9A). 10 μM Wnt agonist (Cat #681665, Calbiochem) was added to the culture medium (DMEM/F12, 1000U/mL LIF and 1×B27).
# [4] = test system: Programin treated embryoid-like cell bodies; settings: treated embryoid-like bodies on 0.1% gelatin, B27 medium, after 3 days, more obvious after 7 days
# Text: Programin treated embryoid-like cell bodies (1×10^6 cells/10 cm^2) were maintained as a suspension culture in DMEM/F12, 1000U/mL LIF and 1×B27 on non-adhesive culture dishes for 4 days. The embryoid-like cell bodies were then transferred to culture dishes coated with 0.1% gelatin (FIG. 10A).
# [5] = test system: CD34+ fibroblasts grown on adhesive culture dishes; settings: 5 μM for 3 days
# Text: Tail fibroblasts extracted from the tail of Oct4-EGFP transgenic mice and stained with CD34 (FIG. 2). The cells were sorted by flow cytometry for only those expressing the surface marker CD34.
# [6] = test system: Oct4, Sox2, KLF4, c-Myc and Nanog expression in HUCPV cells; settings: HUCPV embryoid-like bodies
# Method: Materials required: HUCPV medium, consisting of 15% ESQ-FBS (Invitrogen) and 1% PS in MEM/F12 (Invitrogen), Essential 6 (Invitrogen) supplemented with 100 ng/mL basic fibroblast growth factor (bFGF) (Invitrogen), Programin or derivatives thereof (frozen stock dissolved in DMSO); Working concentration=1-5 μM; Sterile non-adhesive 24-well culture plate (SPL; 32024).
# Primary human umbilical cord peri-vascular (HUCPV) cells were maintained in HUCPV culture medium and passaged by trypsinization. Only HUCPV cells below cell passage 6 were used.
# HUCPV cultures are trypsinize and dissociate into single cells.
# The dissociated HUCPV cells are re-suspend as 3×10^5 cells in 600 μL of HUCPV medium and seeded into each well of a non-adhesive 24-well culture plate.
# The cells are incubated at 37° C. and 5% CO2 inside a cell incubator.
# On following day, until the end of experiment, the cells were pipetted twice a day to prevent cells attaching onto culture plates which caused the HUCPV cells to aggregate into embryoid-like cell bodies.
# 200 μL of fresh HUCPV medium were added to the cultures, every 2 days. […]
# Thirty hours after Programin treatment, the Programin treated embryoid-like cell bodies were harvested for qPCR analysis to validate expression of the pluripotent genes: Oct4, Sox2 and Nanog. Other key stem cells-associate genes were also analyzed.
# [7] = test system: Oct4, Sox2, KLF4, c-Myc and Nanog expression in HUCPV cells; settings: HUCPV cells as a monolayer, 0-5 μM for 30 hours
# [8] = test system: Oct4, Nanog, Sox2, c-Myc and KLF4 expression in human skin fibroblasts; settings: 5 μM, 4 days
# Method: Materials required: Fibroblast medium, supplemented with 15% FBS, 1% non-essential amino acids, 1% PS in Eagle's MEM medium (Invitrogen), human ESC medium, supplemented with 20% knockout serum replacement (Invitrogen), 2 mM L-glutamine, 0.1 mM non-essential amino acids, 0.1 mM mercaptoethanol, 10 ng/mL fibroblast growth factor-basic (bFGF), 1% PS in DMEM/F12 (Invitrogen), Programin or derivatives thereof (frozen stock dissolved in DMSO); Working concentration=5 μM, and sterile 35 mm non-adhesive culture dish (SPL; 11035).
# Primary human skin fibroblasts were cultured in fibroblast medium and passaged by trypsinization. Passage 5 fibroblasts were used for experimentation.
# After dissociating the cultures into single cells with trypsin, 2×10^6 cells were resuspended in 3 mL fibroblast medium in non-adhesive 35 mm dish and maintained in 37° C. incubator with 5% CO2.
# Several hours later, aggregates were formed. Gently breakup excessively large aggregates by pipetting.
# The next day, compact aggregates were formed. Again gentry breakup aggregates into smaller size (100-120 μm diameter) by pipetting.
# Three days after cell aggregate/embryoid-like cell body formation, change the medium to human ESC medium supplemented with 5 μM Programin or derivatives thereof.
# Replenish medium with fresh Programin or derivatives thereof 2 days after. […]
structure (smiles),measurement,setting,value
Nc1nc2nc[nH]c2c(=S)[nH]1 [Derivative 400],"Oct4, Sox2 and Nanog expression (qPCR, FIG. 5)",[1],significantly increased
Oc1ncnc2[nH]ncc12 [Derivative 237],"Oct4, Sox2 and Nanog expression (qPCR, FIG. 5)",[1],significantly increased
Clc1nc(-n2cccn2)c2nc[nH]c2n1 [Derivative 958],"Oct4, Sox2 and Nanog expression (qPCR, FIG. 5)",[1],significantly increased
Cc1cc(C)n(-c2nc(Cl)nc3[nH]cnc23)n1 [Derivative 959],"Oct4, Sox2 and Nanog expression (qPCR, FIG. 5)",[1],significantly increased
S=c1[nH]cnc2nc[nH]c12 [Derivative 594],"Oct4, Sox2 and Nanog expression (qPCR, FIG. 5)",[1],significantly increased
Nc1ncnc2nc[nH]c12 [Derivative 668],"Oct4, Sox2 and Nanog expression (qPCR, FIG. 5)",[1],significantly increased
"c1nc2nc(Nc3ccc(N4CCOCC4)cc3)nc(NC3CCCCC3)c2[nH]1 [programin, 2-(4-Morpholinoanilino)-6-cyclohexylamino-purine]","increase in Oct4, Sox2 and Nanog expression","[1]; aggregates/embryoid-like bodies of fibroblasts, compared to controls (unaggregated, untreated cells)",25-200 fold and 20-200 fold
same,increase in expression of E-cadherin,[1]; compared to that of the initial fibroblast,5 fold
same,"increase in Oct4, Sox2 and Nanog expression","[1]; embryoid-like cell bodies exposed to 2-5 μM for 30 hours, compared to an untreated control fibroblast",25-200 fold
same,"Oct4, Sox2 and Nanog expression (qPCR, FIG. 5)",[1],higher
same,"Oct4, Sox2 and Nanog expression (qPCR, FIG. 4)",[1],highest
same,"Oct4, Sox2 and Nanog expression (qPCR, FIG. 4)",[1]; listed as Programin,significantly enhanced
same,reprogramming efficiency,"[1]; mouse somatic cells, takes 7 days to accomplish",approximately 20%
same,Oct4-EGFP expression (confocal microscope),[2],detectable
same,Oct4-EGFP expression (confocal microscope),[2]; listed as Programin,expressed Oct4-EGFP
same,fate of treated cells that were not aggregated,[3]; following exposure to the Wnt agonist,underwent cell death
same,formation of bone-like nodules,"[3]; treated embryoid-like bodies on 0.1% gelatin with 10 μM Wnt agonist, after 2-3 days",Bone-like nodules were evident
same,Alizen Red s staining of the nodules,[3]; treated embryoid-like bodies with 10 μM Wnt agonist,osteocytes
same,formation of neurons,[4],Neurons were evident
same,Oct4 expression,[5],did not express Oct4
same,cell survival,[5],died
same,"Oct4, Sox2, KLF4, c-Myc and Nanog expression (qPCR)","[6]; 1-5 μM for 30 hours, vs untreated embryoid-like body controls (0 μM)",significantly enhanced
same,"concentration that induced the highest level of Oct4, Sox2, Klf4 and Nanog","[6]; 30 hours, 1-5 μM tested",4 µM
same,"Oct4, Sox2, KLF4, c-Myc and Nanog expression (qPCR)",[7],did not activate
same,"expression of Oct4, Nanog, Sox2, c-Myc and KLF4 (qPCR)","[8]; human skin fibroblast embryoid-like bodies, vs vehicle and monolayer",higher levels
same,"expression of pluripotency-associated genes Oct4, Sox2, Nanog, KLF4 and c-Myc",[8]; human skin fibroblasts in a monolayer,not in a monolayer
Clc1nc(N2CCN(c3ccccc3)CC2)c2[nH]cnc2n1 [Derivative 957],"Oct4, Sox2 and Nanog expression (qPCR, FIG. 5)",[1],significantly increased
